In ChEMBL document CHEMBL6182948 (J Med Chem, 2025):

Assays:
[1] = Stability in human plasma assessed as compound remaining at 100 uM measured after 120 mins by LC-MS/MS analysis; format: ADME, cell-free; details: read-out: Stability
[2] = Stability in human plasma assessed as compound remaining at 100 uM measured after 15 mins by LC-MS/MS analysis; format: ADME, cell-free; details: read-out: Stability
[3] = Stability in human plasma assessed as compound remaining at 100 uM measured after 60 mins by LC-MS/MS analysis; format: ADME, cell-free; details: read-out: Stability
[4] = Stability in human plasma assessed as compound remaining at 100 uM measured after 5 mins by LC-MS/MS analysis; format: ADME, cell-free; details: read-out: Stability
[5] = Stability in human plasma assessed as compound remaining at 100 uM measured after 30 mins by LC-MS/MS analysis; format: ADME, cell-free; details: read-out: Stability
[6] = biological target: T1, CYP2C8 (Homo sapiens, UniProt P10632); test: Inhibition of CYP2C8 in human liver microsome at 10 uM pre-incubated with compound for 5 mins followed NADPH addition and measured after 5 mins by LC-MS/MS analysis relative to control; format: ADME; details: liver microsomes, time 10 min
T1 sequence (P10632 whole entry): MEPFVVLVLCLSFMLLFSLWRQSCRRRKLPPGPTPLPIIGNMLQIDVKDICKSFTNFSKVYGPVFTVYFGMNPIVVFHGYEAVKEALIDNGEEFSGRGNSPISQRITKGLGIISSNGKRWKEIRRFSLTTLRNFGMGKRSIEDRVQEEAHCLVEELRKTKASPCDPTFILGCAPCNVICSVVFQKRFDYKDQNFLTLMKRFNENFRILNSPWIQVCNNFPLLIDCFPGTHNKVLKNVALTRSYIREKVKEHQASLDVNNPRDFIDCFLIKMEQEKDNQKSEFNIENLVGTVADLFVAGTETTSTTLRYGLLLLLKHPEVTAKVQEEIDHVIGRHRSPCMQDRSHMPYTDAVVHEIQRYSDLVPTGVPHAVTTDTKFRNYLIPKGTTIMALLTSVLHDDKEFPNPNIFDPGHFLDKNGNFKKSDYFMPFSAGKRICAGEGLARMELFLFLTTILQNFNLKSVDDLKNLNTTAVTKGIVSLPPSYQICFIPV

[7] = tested on: A549/TR; test: Antiproliferative activity against human A549/Taxol cells assessed inhibition of cell viability incubated for 48 hrs by CCK-8 assay; format: functional, cell-based
[8] = tested on: A549; test: Antiproliferative against human A549 cells assessed as inhibition of cell viability incubated for 48 hrs by CCK-8 assay; format: functional, cell-based; details: A549, 48 h
[9] = Selectivity ratio of IC50 for antiproliferative activity against human A549/Taxol cells to IC50 for antiproliferative activity against human A549 cells; format: functional
[10] = Metabolic stability in liver microsome (unknown origin) assessed as intrinsic clearance at 0.5 mg/mL measured up to 60 mins by LC-MS/MS analysis; format: ADME; details: human, liver microsomes, read-out: CLH
[11] = Metabolic stability in liver microsomes (unknown origin) assessed as half life at 0.5 mg/ml measured up to 60 mins by LC-MS/MS analysis; format: ADME, Microsome; details: human
[12] = biological target: T2, CYP1B1 (Homo sapiens, UniProt Q16678); test: Inhibition of human recombinant CYP1B1 using 7-ethoxyresorufin as substrate at 100 uM incubated under dark condition for 30 mins in presence of NADPH by EROD fluorescence assay relative to control; format: ADME; details: recombinant CYP1B1, probe 7-ethoxyresorufin
T2 sequence (Q16678 whole entry): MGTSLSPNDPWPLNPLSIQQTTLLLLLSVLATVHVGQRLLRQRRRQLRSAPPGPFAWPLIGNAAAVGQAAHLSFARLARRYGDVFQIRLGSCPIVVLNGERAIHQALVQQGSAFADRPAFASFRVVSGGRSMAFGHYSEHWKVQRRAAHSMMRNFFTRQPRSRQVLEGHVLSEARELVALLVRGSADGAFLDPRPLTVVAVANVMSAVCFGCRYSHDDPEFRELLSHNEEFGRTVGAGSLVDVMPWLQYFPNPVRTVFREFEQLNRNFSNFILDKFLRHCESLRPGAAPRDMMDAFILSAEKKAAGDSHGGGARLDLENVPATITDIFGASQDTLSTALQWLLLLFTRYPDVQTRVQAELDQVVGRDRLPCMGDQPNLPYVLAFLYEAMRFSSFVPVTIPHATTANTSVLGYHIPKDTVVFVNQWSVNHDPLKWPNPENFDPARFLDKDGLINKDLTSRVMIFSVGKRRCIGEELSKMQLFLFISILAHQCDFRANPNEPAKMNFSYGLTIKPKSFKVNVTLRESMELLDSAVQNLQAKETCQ

[13] = Cytotoxicity against human BEAS-2B cells assessed as inhibition of cell viability incubated for 48 hrs by CCK-8 assay; format: toxicity, cell-based
[14] = Cytotoxicity against HUVEC assessed as inhibition of cell viability incubated for 48 hrs by CellTiter Glo assay; format: toxicity, cell-based; details: human, HUVEC cells
[15] = tested on: A549/TR; test: Inhibition of cell invasion in human A549/Taxol cells assessed as invasive cells at 5 uM incubated for 24 hrs by transwell invasion assay relative to control; format: functional; design: scale not given: the % may be the effect or the level left
[16] = tested on: A549/TR; test: Inhibition of cell migration in human A549/Taxol cells assessed as wound closure at 5 uM measured after 24 hrs by scratch-wound healing assay relative to control; format: functional; design: scale not given: the % may be the effect or the level left
[17] = biological target: T3, Cytochrome P450 1A2 (Homo sapiens, UniProt P05177); test: Inhibition of human recombinant CYP1A2 using 7-ethoxyresorufin as substrate incubated under dark condition for 45 mins in presence of NADPH by EROD fluorescence assay; format: ADME
T3 sequence (P05177 whole entry): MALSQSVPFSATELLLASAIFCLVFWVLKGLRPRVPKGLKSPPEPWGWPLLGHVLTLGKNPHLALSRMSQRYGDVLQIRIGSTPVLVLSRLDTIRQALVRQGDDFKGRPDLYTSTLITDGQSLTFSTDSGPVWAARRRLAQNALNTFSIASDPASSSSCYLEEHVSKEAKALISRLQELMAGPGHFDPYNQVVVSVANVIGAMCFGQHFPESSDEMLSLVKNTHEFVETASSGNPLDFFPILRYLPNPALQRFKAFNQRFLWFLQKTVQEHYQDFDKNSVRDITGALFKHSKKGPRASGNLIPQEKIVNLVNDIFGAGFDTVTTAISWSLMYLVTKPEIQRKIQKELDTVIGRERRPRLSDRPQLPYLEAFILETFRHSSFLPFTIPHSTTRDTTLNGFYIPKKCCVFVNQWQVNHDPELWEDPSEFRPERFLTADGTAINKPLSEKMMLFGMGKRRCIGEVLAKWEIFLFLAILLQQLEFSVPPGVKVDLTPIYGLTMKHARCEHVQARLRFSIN

[18] = species: Homo sapiens; test: Selectivity index, ratio of IC50 for human recombinant CYP1A1 to IC50 for human recombinant CYP1B1 using 7-ethoxyresorufin as substrate
[19] = biological target: T4, Cytochrome P450 1A1 (Homo sapiens, UniProt P04798); test: Inhibition of human recombinant CYP1A1 using 7-ethoxyresorufin as substrate incubated under dark condition for 15 mins in presence of NADPH by EROD fluorescence assay; format: ADME
T4 sequence (P04798 whole entry): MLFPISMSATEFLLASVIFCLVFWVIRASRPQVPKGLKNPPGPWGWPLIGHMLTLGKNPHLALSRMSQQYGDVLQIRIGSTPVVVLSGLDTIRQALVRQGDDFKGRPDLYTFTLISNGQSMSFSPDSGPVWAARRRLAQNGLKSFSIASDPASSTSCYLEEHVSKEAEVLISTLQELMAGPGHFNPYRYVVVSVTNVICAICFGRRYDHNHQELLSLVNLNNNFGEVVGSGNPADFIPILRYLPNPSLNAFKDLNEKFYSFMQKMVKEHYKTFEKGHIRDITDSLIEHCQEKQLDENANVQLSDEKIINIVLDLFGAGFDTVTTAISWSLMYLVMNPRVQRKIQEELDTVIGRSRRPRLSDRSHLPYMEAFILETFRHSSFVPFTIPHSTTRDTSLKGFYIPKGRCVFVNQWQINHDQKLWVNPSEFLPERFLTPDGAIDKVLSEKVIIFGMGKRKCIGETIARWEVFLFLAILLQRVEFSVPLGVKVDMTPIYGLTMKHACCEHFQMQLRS

[20] = species: Homo sapiens; test: Selectivity index, ratio of IC50 for human recombinant CYP1A2 to IC50 for human recombinant CYP1B1 using 7-ethoxyresorufin as substrate
[21] = biological target: T5, Cytochrome P450 1B1 (Homo sapiens, UniProt Q16678); test: Inhibition of human recombinant CYP1B1 using 7-ethoxyresorufin as substrate incubated under dark condition for 30 mins in presence of NADPH by EROD fluorescence assay; format: ADME
T5 sequence (Q16678 whole entry): T2 sequence (Q16678 whole entry)

[22] = biological target: CYP2C19 (Homo sapiens, UniProt P33261); test: Inhibition of CYP2C19 in human liver microsome at 3 uM pre-incubated with compound for 5 mins followed NADPH addition and measured after 30 mins by LC-MS/MS analysis relative to control; format: ADME; details: liver microsomes, time 35 min
Chain of CYP2C19 (P33261 whole entry): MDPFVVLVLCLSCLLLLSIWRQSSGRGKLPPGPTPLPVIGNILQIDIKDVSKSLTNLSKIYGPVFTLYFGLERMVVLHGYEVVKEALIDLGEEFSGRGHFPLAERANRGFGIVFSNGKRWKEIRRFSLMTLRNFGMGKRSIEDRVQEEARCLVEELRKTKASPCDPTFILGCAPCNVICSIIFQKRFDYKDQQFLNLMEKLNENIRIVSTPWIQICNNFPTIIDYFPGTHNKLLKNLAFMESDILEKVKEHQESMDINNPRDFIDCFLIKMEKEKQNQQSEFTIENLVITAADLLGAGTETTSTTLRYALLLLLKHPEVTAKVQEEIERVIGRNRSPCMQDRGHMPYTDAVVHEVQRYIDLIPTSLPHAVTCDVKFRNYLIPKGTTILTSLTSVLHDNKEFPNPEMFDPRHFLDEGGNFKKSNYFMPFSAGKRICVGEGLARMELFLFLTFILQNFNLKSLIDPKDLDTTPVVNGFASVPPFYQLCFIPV

[23] = biological target: CYP2C9 (Homo sapiens, UniProt P11712); test: Inhibition of CYP2C9 in human liver microsome at 3 uM pre-incubated with compound for 5 mins followed NADPH addition and measured after 10 mins by LC-MS/MS analysis relative to control; details: liver microsomes
Chain of CYP2C9 (P11712 whole entry): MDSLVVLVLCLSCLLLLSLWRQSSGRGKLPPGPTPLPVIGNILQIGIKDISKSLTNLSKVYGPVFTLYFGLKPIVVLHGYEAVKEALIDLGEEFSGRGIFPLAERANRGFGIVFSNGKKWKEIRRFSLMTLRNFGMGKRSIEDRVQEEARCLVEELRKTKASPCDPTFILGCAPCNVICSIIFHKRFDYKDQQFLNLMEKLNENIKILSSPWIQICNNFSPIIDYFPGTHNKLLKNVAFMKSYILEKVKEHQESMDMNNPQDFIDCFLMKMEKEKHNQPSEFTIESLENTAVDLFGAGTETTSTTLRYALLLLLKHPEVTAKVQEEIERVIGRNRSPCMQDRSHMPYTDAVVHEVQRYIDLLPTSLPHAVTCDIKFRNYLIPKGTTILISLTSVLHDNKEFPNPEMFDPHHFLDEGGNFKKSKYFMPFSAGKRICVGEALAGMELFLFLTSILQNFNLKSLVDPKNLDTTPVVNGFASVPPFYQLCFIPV

[24] = biological target: CYP2D6 (Homo sapiens, UniProt P10635); test: Inhibition of CYP2D6 in human liver microsome at 3 uM pre-incubated with compound for 5 mins followed NADPH addition and measured after 10 mins by LC-MS/MS analysis relative to control; details: liver microsomes
Chain of CYP2D6 (P10635 whole entry): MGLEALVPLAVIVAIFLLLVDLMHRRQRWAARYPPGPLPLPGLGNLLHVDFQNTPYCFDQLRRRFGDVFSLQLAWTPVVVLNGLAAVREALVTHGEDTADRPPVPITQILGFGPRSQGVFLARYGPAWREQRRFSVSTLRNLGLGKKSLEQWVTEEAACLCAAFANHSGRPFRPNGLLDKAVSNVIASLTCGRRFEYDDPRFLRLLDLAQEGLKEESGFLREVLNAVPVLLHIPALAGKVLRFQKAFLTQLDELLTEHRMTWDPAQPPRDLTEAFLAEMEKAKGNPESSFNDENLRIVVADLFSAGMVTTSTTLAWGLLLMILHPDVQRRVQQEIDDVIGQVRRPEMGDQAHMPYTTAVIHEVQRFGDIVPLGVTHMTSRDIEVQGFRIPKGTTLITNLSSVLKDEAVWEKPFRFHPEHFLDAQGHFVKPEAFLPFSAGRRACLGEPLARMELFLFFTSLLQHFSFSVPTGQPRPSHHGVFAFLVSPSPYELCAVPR

## CC(C)[N+](C)(CCOC(=O)C1c2ccccc2Oc2ccccc21)C(C)C [PROPANTHELINE BROMIDE]
[1]
  remaining at 2 h, 100 µM: 1.7%
[2]
  remaining at 0.25 h, 100 µM: 66.5%
[3]
  remaining at 1 h, 100 µM: 11.6%
[4]
  remaining at 5 min, 100 µM: 90.7%
[5]
  remaining at 0.5 h, 100 µM: 41.3%

## O=c1c(O)c(-c2ccc(O)c(O)c2)oc2cc(O)cc(O)c12 [QUERCETIN]
[6]
  inhibition at 5 min, 10 µM: 77.2%

## CC(=O)O[C@H]1C(=O)[C@@]2(C)[C@H]([C@H](OC(=O)c3ccccc3)[C@]3(O)C[C@H](OC(=O)[C@H](O)[C@@H](NC(=O)c4ccccc4)c4ccccc4)C(C)=C1C3(C)C)[C@]1(OC(C)=O)CO[C@@H]1C[C@@H]2O [PACLITAXEL]
[7]
  IC50: 8290 nM
[8]
  IC50: 31.4 nM
[9]
  Ratio IC50: 263.8

## O=C(O)Cc1ccccc1Nc1c(Cl)cccc1Cl [DICLOFENAC]
[10]
  CLint scaled: 226 mL/min/kg
[11]
  half-life: 5.5 min

## COc1cc(/C=C/c2ccc(OC)cc2OC)cc(OC)c1
[12]
  inhibition at 0.5 h, 100 µM: 103%
[13]
  IC50 at 48 h: 2900 nM
[14]
  IC50 at 48 h: > 40000 nM
[8]
  IC50: 7900 nM
[15]
  Activity: 40.2%
[16]
  Activity: 12.6%
[17]
  IC50: 1940 nM

## O=C(Nc1ccc(OC(F)(F)F)cc1)c1nc(-c2ccccc2)cs1
[12]
  inhibition at 0.5 h, 100 µM: 92.2%
[18]
  Ratio IC50: 28.6
[19]
  IC50: 213 nM
[20]
  Ratio IC50: 63.4
[21]
  IC50: 7.45 nM
[17]
  IC50: 472 nM

## O=C(Nc1ccc(Cl)cc1)c1nc(-c2ccccc2)cs1
[12]
  inhibition at 0.5 h, 100 µM: 102%
[18]
  Ratio IC50: 180
[19]
  IC50: 213 nM
[20]
  Ratio IC50: 327
[21]
  IC50: 1.18 nM
[17]
  IC50: 386 nM

## O=C(Nc1ccc(C(F)F)cc1)c1nc(-c2ccccc2)cs1
[12]
  inhibition at 0.5 h, 100 µM: 99.9%
[18]
  Ratio IC50: 721
[19]
  IC50: 1720 nM
[20]
  Ratio IC50: 447
[21]
  IC50: 2.39 nM
[17]
  IC50: 1070 nM

## CCC1(c2ccccc2)NC(=O)N(Cc2ccccc2)C1=O (configuration not stated)
[22]
  inhibition at 0.5 h, 3 µM: 89.8%

## O=C(Nc1cccc(F)c1)c1nc(-c2ccccc2)cs1
[12]
  inhibition at 0.5 h, 100 µM: 82.2%
[18]
  Ratio IC50: 9
[19]
  IC50: 215 nM
[20]
  Ratio IC50: 19.4
[21]
  IC50: 23.9 nM
[17]
  IC50: 465 nM

## Nc1ccc(S(=O)(=O)Nc2ccnn2-c2ccccc2)cc1 [SULFAPHENAZOLE]
[23]
  inhibition at 10 min, 3 µM: 79%

## C=C[C@H]1C[N@@]2CC[C@H]1C[C@@H]2[C@@H](O)c1ccnc2ccc(OC)cc12 [QUINIDINE]
[24]
  inhibition at 10 min, 3 µM: 89.3%

## O=C(Nc1ccc(F)cc1)c1nc(-c2ccccc2)cs1
[12]
  inhibition at 0.5 h, 100 µM: 86.7%
[18]
  Ratio IC50: 11.7
[19]
  IC50: 280 nM
[20]
  Ratio IC50: 9.2
[21]
  IC50: 24 nM
[17]
  IC50: 221 nM

## O=C(Nc1cc(Cl)ccc1Cl)c1nc(-c2ccccc2)cs1
[12]
  inhibition at 0.5 h, 100 µM: 96.2%
[18]
  Ratio IC50: 20.5
[19]
  IC50: 208 nM
[20]
  Ratio IC50: 8
[21]
  IC50: 10.1 nM
[17]
  IC50: 80.9 nM
